Assay results: ChEMBL document CHEMBL4477238, “Ligand binding cooperativity: Bioisosteric replacement of CO with SO2 among thrombin inhibitors” (Bioorg Med Chem Lett, 2016)

Target: Prothrombin (Homo sapiens, UniProt P00734)
Assay: Inhibition of human alpha-thrombin using chromogenic substrate Pefachrome tPa measured every second for 20 mins by spectrophotometry

`CC(C)CS(=O)(=O)N1CCC[C@H]1C(=O)NCc1ccc(C(=N)N)cc1` and `CC(C)CCS(=O)(=O)N1CCC[C@H]1C(=O)NCc1ccc(C(=N)N)cc1` are within 1.5-fold of each other in Ki: 3.4 µM for the first, 2.7 µM for the second.

Going from `CCCS(=O)(=O)N1CCC[C@H]1C(=O)NCc1ccc(C(=N)N)cc1` to `CCS(=O)(=O)N1CCC[C@H]1C(=O)NCc1ccc(C(=N)N)cc1`, the Ki rises from 12 µM to 117 µM (9.8-fold). The first binds more tightly here.

First: CC(C)CC(=O)N1CCC[C@H]1C(=O)NCc1ccc(C(=N)N)cc1
Second: N=C(N)c1ccc(CNC(=O)[C@@H]2CCCN2C(=O)Cc2ccccc2)cc1
The Ki of the first is 20-fold higher: 4 µM for the first, 0.2 µM for the second. The second binds more tightly here.

`N=C(N)c1ccc(CNC(=O)[C@@H]2CCCN2S(=O)(=O)Cc2ccccc2)cc1` gave a Ki of 2.5 µM.
